# Columns and labels:
# [1] = system: purified bovine brain tubulin; experiment: Tubulin polymerization (optical density at 350 nm); type: biochemical; conditions: for Polymerization?: 10 uM, 37 C.; for microtubule polymerizing activity compared to discodermolide: compared to the non-acetylated discodermolide
# Procedure: Polymerization of purified bovine brain tubulin (Cytoskeleton Inc., Denver, Colo.) was followed by changes in the optical density of tubulin solutions at 350 nm in a Hitachi U-3010 spectrophotometer equipped with a SPR-10 electronic thermostatted cell holder. Stock solutions of tubulin were diluted on ice in G-PEM buffer (1 mM GTP, 80 mM PIPES, 1 mM EGTA, 0.5 mM magnesium chloride; pH 6.8) to a final concentration of 1 mg/ml. The instrument was zeroed on this solution at 2° C. Discodermolide, its analogs, or paclitaxel were then added to the tubulin solution to a final concentration of 10 μM, quickly mixed, and the absorbance monitored at 37° C.
# [2] = system: A549 human adenocarcinoma cell line; experiment: Antiproliferative effect on A549 cells (MTT); type: cell-based; conditions: additional 48 hr exposure, read-out: A549 IC-50
# Procedure: (§1) Discodermolide and discodermolide analogs were analyzed as to their effects on proliferation of A549 human adenocarcinoma and P388 murine leukemia cell lines. P388 cells were obtained from Dr. R. Camalier, National Cancer Institute, Bethesda, Md., and A549 cells were obtained from American Type Culture Collection, Rockville, Md. All cell lines were maintained in Roswell Park Memorial Institute (RPMI) medium 1640 supplemented with 10% Rehatuin™ fetal calf serum (Intergen Company, Purchase, N.Y.). All cell lines are cultured in plastic tissue culture flasks and kept in an incubator at 37° C. in humidified air containing 5% CO2. Prior to testing, antibiotic-free stock cultures of each of the cell lines were subcultured to 10^6 cells/ml by dilution in fresh growth medium at 2 to 3 day intervals.
# After 48-hr exposures, P388 cells are enumerated using 3-[4,5-Dimethylthiazol-2-yl]-2,5-diphenyltetrazolium bromide (MTT) (M. C. Alley, et al., Cancer Res. 48:589, 1988). […] Results are expressed as percent inhibition compared to the negative (no drug) control. Positive drug controls are included to monitor drug sensitivity of each of the cell lines. These include varying dilutions of 5-fluorouracil and adriamycin.
# (§2) To quantitate the effects on cell proliferation and resulting IC50 values, 75 μl of warm growth media containing 5 mg/ml MTT is added to each well, cultures returned to the incubator, and left undisturbed for 90 minutes. To spectrophotometrically quantitate formation of reduced formazan, plates are centrifuged (900× g, 5 minutes), culture fluids removed by aspiration, and 200 μl of acidified isopropanol (2 ml concentrated HCl/liter isopropanol) added per well. The absorbance of the resulting solutions is measured at 570 nm with a plate reader (TECAN Spectra II PlateReader, TECAN U.S., Research Triangle Park, N.C.) and a 650 nm reference filter. The absorbance of tests wells is divided by the absorbance of drug-free wells, and the concentration of agent that results in 50% of the absorbance of untreated cultures (IC50) is determined by linear regression of logit-transformed data (D. J. Finney, Statistical Method in Biological Assay, third ed., pp.316-348, Charles Griffin Co., London, 1978). A linear relationship between tumor cell number and formazan production has been routinely observed over the range of cell densities observed in these experiments. Two standard drug controls are included in each assay as a check to monitor the drug sensitivity of each of the cell lines and IC50 values are determined for each drug-cell combination.
# [3] = system: microtubule network of cells; experiment: Microtubule bundling patterns in cells by immunofluorescence; type: cell-based; conditions: for Microtubule bundling: concentration not given
# Procedure: Discodermolide, discodermolide analogs and paclitaxel were evaluated as to their effects on the microtubule network of cells using FITC-labeled, anti-alpha-tubulin monoclonal antibodies.
# On day 1, 2.5×10^5 adherent tumor cells were cultured in RPMI 1640 tissue culture medium supplemented with 10% fetal calf serum (TCM) overnight at 37° C. in 5% CO2 on 22 mm^2 coverslips in 6-well microtiter plates. […] On day 3, TCM was removed and cells attached to coverslips were fixed with a 3.7% formaldehyde solution in Dulbecco's PBS for 10 minutes at room temperature. Cells were permeabilized with a 2% Triton X-100 solution, 2 ml per well, for 5 minutes at room temperature and washed twice in Dulbecco's PBS prior to staining.
# To each well containing cells attached to coverslips a 2 ml volume of mouse monoclonal anti-alpha-tubulin (Cat # T-5168, Sigma Immuno Chemicals) diluted 1:2400 was added and the cells incubated at 37° C. in 5% CO2 for 45 minutes. Coverslips were rinsed twice with Dulbecco's PBS. A 2 ml volume of goat-anti-mouse-IgG-FITC conjugate (Cat # T-5262, Sigma Immuno Chemicals) diluted at 1:2400 was added and the cells incubated at 37° C. in 5% CO2 for 45 minutes. Coverslips were rinsed once with sterile distilled water and mounted on slides and observed under the microscope using epifluorescence illumination for the presence of abnormal aster and microtubule bundle formation.
# [4] = system: P388 murine leukemia cell line; experiment: Antiproliferative effect on P388 cells (MTT, 48-hr exposure); type: cell-based; conditions: Mus musculus, read-out: P388 IC-50
# Procedure: as §1
# (§3) To assess the antiproliferative effects of agents against the P388 cell line, 200 μl cultures (96-well tissue culture plates, Nunc, Denmark) are established at 1×10^5 cells/ml in drug-free medium or medium containing the test agent at 10.0, 1.0, 0.10 and 0.010 μg/ml. The solvent for all dilutions is ethanol. All experimental cultures are initiated in medium containing Gentamycin sulfate (50 μg/ml; Schering Corporation, Kenilworth, N.J.).
# (§4) After 48-hr exposures, P388 cells are enumerated using 3-[4,5-Dimethylthiazol-2-yl]-2,5-diphenyltetrazolium bromide (MTT) (M. C. Alley, et al., Cancer Res. 48:589, 1988). Similar procedures are utilized for A549 cells which require an additional 48 hr exposure prior to MTT addition. Results are expressed as percent inhibition compared to the negative (no drug) control. Positive drug controls are included to monitor drug sensitivity of each of the cell lines. These include varying dilutions of 5-fluorouracil and adriamycin.
# as §2
# [5] = system: A549 human adenocarcinoma and P388 murine leukemia cell lines; experiment: Antitumor effects of discodermolide analogs compared to discodermolide; type: cell-based; conditions: compared to the non-acetylated discodermolide
# Procedure: as §1, §3, §4
# To quantitate the effects on cell proliferation and resulting IC50 values, 75 μl of warm growth media containing 5 mg/ml MTT is added to each well, cultures returned to the incubator, and left undisturbed for 90 minutes. […]
# [6] = system: purified bovine brain tubulin; experiment: Tubulin polymerization (optical density at 350 nm); type: biochemical; conditions: 10 uM, 6 C.-37 C.
# A549 human lung cells = experiment: Effect on cell cycle progression (G2/M block, propidium iodide flow cytometry); type: cell-based; conditions: 100 nM, 48 hr
# Procedure: A549 human lung cells were used as cell cycle targets to compare the effects of discodermolide, discodermolide analogs and paclitaxel on perturbation of the cell cycle. Cell cycle analyses were performed as follows: A549 cells were incubated at 37° C. in 10% CO2 in air in the presence or absence of varying concentrations of discodermolide, discodermolide analogs or paclitaxel (purchased from Molecular Probes, Eugene Oreg.) for 48 hr.
# Cells were harvested, fixed in ethanol and stained with 0.5 mg/ml of P.I. together with 0.1 mg/ml of RNAse A. This procedure permeabilizes live cells and allows entry of P.I. to stain DNA (propidium iodide also stains double stranded RNA, so RNAse is included in the preparation to exclude this possibility). Stained preparations were analyzed on a Coulter EPICS ELITE with 488 nm excitation with the dead cells excluded by back gating of P.I. preparations without detergent on forward and side scatter histograms. Fluorescence measurements and resulting DNA histograms were collected from at least 5,000 P.I. stained cells at an emission wavelength of 690 nm. Raw histogram data was further analyzed using a cell cycle analysis program (Multicycle, Phoenix Flow Systems).
SMILES,Polymerization? [1],IC50 [2],Microtubule Bundling? ([3]; 100 nM),Microtubule bundling [3],IC50 [4],Microtubule Bundling? ([3]; 1000 nM),microtubule polymerizing activity compared to discodermolide [1],antitumor activity compared to discodermolide [5],Microtubule Bundling? ([3]; 10 nM),Polymerization? [6],Polymerization? ([1]; listed as discodermolide 9),"Microtubule Bundling? ([3]; 100 nM, listed as Discodermolide9)",G2/M Block (A549 human lung cells),Polymerization? ([1]; listed as paclitaxel),"Microtubule Bundling? ([3]; 100 nM, listed as paclitaxel)"
"C=CC=CC(C)C(OC(N)=O)C(C)C(OC(C)=O)C(C)CC(C)=CC(C)C(OC(C)=O)C(C)C=CC(CC1OC(=O)C(C)C(OC(C)=O)C1C)OC(C)=O (stereo not drawn) [Analog 1, Discodermolide-3,7,11,17-tetraacetate]",No and inactive,1310 nM,No,negative,837 nM,–,–,–,–,–,–,–,–,–,–
"C=CC=CC(C)C(OC(N)=O)C(C)C(OC(C)=O)C(C)CC(C)=CC(C)C(O)C(C)C=CC(CC1OC(=O)C(C)C(OC(C)=O)C1C)OC(C)=O (stereo not drawn) [Analog 2, Discodermolide-3,7,17-triacetate]",No and inactive,> 1310 nM,No,negative,> 6820 nM,No,–,–,–,–,–,–,–,–,–
"C=CC=CC(C)C(OC(N)=O)C(C)C(O)C(C)CC(C)=CC(C)C(OC(C)=O)C(C)C=CC(CC1OC(=O)C(C)C(OC(C)=O)C1C)OC(C)=O (stereo not drawn) [Analog 3, Discodermolide-3,7,11-triacetate]",No and inactive,554 nM,No,negative,166 nM,–,–,–,–,–,–,–,–,–,–
"C=CC=CC(C)C(OC(N)=O)C(C)C(O)C(C)CC(C)=CC(C)C(O)C(C)C=CC(CC1OC(=O)C(C)C(OC(C)=O)C1C)OC(C)=O (stereo not drawn) [Analog 4, Discodermolide-3,7-diacetate]",Yes and able to induce tubulin polymerization,3.7 nM,Yes and induced similar microtubule bundle formation,–,0.7 nM,–,improved,improved,Yes,–,–,–,–,–,–
"C=CC=CC(C)C(OC(N)=O)C(C)C(O)C(C)CC(C)=CC(C)C(OC(C)=O)C(C)C=CC(O)CC1OC(=O)C(C)C(OC(C)=O)C1C (stereo not drawn) [Analog 5, Discodermolide-3,11-diacetate]",No and inactive,295 nM,No,negative,103 nM,–,–,–,–,–,–,–,–,–,–
"C=CC=CC(C)C(OC(N)=O)C(C)C(OC(C)=O)C(C)CC(C)=CC(C)C(O)C(C)C=CC(O)CC1OC(=O)C(C)C(OC(C)=O)C1C (stereo not drawn) [Analog 6, Discodermolide-3,17-diacetate]",No and inactive,736 nM,No,–,1150 nM,Yes and induced microtubule bundles only at 1000 nM,–,–,–,–,–,–,–,–,–
"C=CC=CC(C)C(OC(N)=O)C(C)C(O)C(C)CC(C)=CC(C)C(O)C(C)C=CC(O)CC1OC(=O)C(C)C(OC(C)=O)C1C (stereo not drawn) [Analog 7, Discodermolide-3-acetate]",Yes and able to induce tubulin polymerization,9.4 nM,Yes and induced similar microtubule bundle formation,–,9 nM,–,improved,improved,Yes,–,–,–,–,–,–
"C=CC=CC(C)C(OC(N)=O)C(C)C(O)C(C)CC(C)=CC(C)C(O)C(C)C=CC(CC1OC(=O)C(C)C(O)C1C)OC(C)=O (stereo not drawn) [Analog 8, Discodermolide-7-acetate]",able to induce tubulin polymerization,0.8 nM,Yes and induced similar microtubule bundle formation,–,4 nM,Yes,improved,improved,–,Yes,–,–,–,–,–
"C=C/C=C\[C@H](C)[C@H](OC(N)=O)[C@@H](C)[C@H](O)[C@@H](C)C/C(C)=C\[C@H](C)[C@@H](O)[C@@H](C)/C=C\[C@@H](O)C[C@@H]1OC(=O)[C@H](C)[C@@H](O)[C@H]1C [Discodermolide 9, (+)discodermolide, reference compound]",Yes,34 nM,Yes,"routinely exhibit abnormal formation of multiple centriolar-radiating microtubules with extensive clusters of associated microtubular ""bundles""",35 nM,–,–,–,Yes,–,induced the polymerization of purified tubulin,induced the formation of microtubule bundles,"induced cell cycle, G2 /M block",–,–
"CC(=O)O[C@H]1C(=O)[C@@]2(C)[C@H]([C@H](OC(=O)c3ccccc3)[C@]3(O)C[C@H](OC(=O)[C@H](O)[C@@H](NC(=O)c4ccccc4)c4ccccc4)C(C)=C1C3(C)C)[C@]1(OC(C)=O)CO[C@@H]1C[C@@H]2O [Paclitaxel, reference compound]",Yes,7.7 nM,Yes,"routinely exhibit abnormal formation of multiple centriolar-radiating microtubules with extensive clusters of associated microtubular ""bundles""",–,–,–,–,–,–,–,–,–,induced the polymerization of purified tubulin,induced the formation of microtubule bundles

# From patent US6127406A, “Discodermolide compounds and methods of use” (Harbor Branch Oceanographic Institution, Inc., priority 1999, dated 2000)
